Earlier results, collected in patent US20070104771A1, “Transdermal galantamine delivery system” (priority 2005, published 2007).

COc1ccc2c3c1OC1CC(O)C=CC31CCN(C)C2 (stereo not shown) [galantamine, 4a, 5,9, 10, 11, 12-Hexahydro-3-methoxy-11-methyl-6H-benzofuro (3a, 3,2-ef) (2) benzazepin-6-ol]
oral bioavailability: 90%
